Read-outs that look alike come from different tables or passages of the source.

The assay has as its target human SCTR (Homo sapiens, UniProt P47872). Nature of the assay: agonist-induced β-arr2-GFP translocation. On the set-up: expressed in transfected cells; host or cells: U2OS (human osteosarcoma), stably co-transfected with β-arrestin2-GFP. As to conditions: for EC50: mean of at least three independent experiments in duplicates; for β-arrestin2-GFP agonism efficacy: % of wild-type secretin. It is filed as cell-based. The text has this: U2OS-SCTR/β-arr2-GFP: human osteosarcoma cell line U2OS (purchased from ATCC/LGC Standards, Wesel, Germany) were stably transfected with plasmids encoding SCTR (Homo sapiens) and the fusion protein β-arrestin2-green fluorescent protein (GFP) (Rattus norvegicus-Aequorea victoria) (β-arr2-GFP).
To evaluate reactivity of human SCTR exposed to different ligand variants, intracellular translocation of a fusion protein of β-arrestin2 and green fluorescent protein was utilized. For evaluation of activation, receptor-mediated recruitment of cytoplasmic β-arr2-GFP was monitored through its translocation into condensed intracellular vesicles. The extent of translocation events was quantified by determining the increasing granularization of the intracellular fluorescence utilizing an automated high-throughput microscope in combination with computational algorithms to estimate potency (EC50) and efficacy, thus characterizing ligand-SCTR interaction. U2OS-SCTR/β-arr2-GFP cells were seeded in 96-well cell culture plates to 60–80% confluence. On the following day, preceding stimulation, cells were incubated for one hour in serum-free medium. Ligand variants were applied as serial dilutions in assay buffer C1. After preincubation, supernatant was discarded by tapping plates overhead repeatedly. For stimulation, 50 µL of ligand dilution was applied per well in duplicates and incubated for 20 min at 37 °C. Successively, cells were fixed by applying 4% buffered formaldehyde (Herbeta Arzneimittel, Berlin, Germany) for 10 min at room temperature and consecutively permeabilized for 10 min at room temperature with 0.1% TritonX-100 in PBS, containing DAPI (4′,6-Diamidin-2-phenylindol, SigmaAldrich, Deisenhofen, Germany, 1 µg/mL) to counterstain nuclei. Microscopic images were recorded by an IN Cell Analyzer 1000 (GE Healthcare, Reading, UK) with 20× magnification at 5 frames per well in a 96-well format. Image processing was performed with IN Cell Investigator software (GE Healthcare, Reading, UK), applying the provided granularity algorithm. The output of the analysis was indicated as vesicle area/cell and was utilized for calculation of concentration–response curves. Parameters derived from curve fitting included the concentration of half-maximal activity (EC50), and intrinsic activity. Intrinsic activity was normalized defining reaction to non-modified wild type secretin as the 100% curve maximum value.

[1] abbreviates: Supplementary Tables S1 and S2, decimal comma, '-' not detectable (Figure 4).
Where [2] appears, read: Supplementary Tables S1 and S2, U2OS-SCTR/β-arr2-GFP cells, 20 min at 37 °C, decimal comma, '-' not detectable (Figure 4), read-out: β-arrestin2-GFP agonism potency.

Sequence of human SCTR (P47872 23-440): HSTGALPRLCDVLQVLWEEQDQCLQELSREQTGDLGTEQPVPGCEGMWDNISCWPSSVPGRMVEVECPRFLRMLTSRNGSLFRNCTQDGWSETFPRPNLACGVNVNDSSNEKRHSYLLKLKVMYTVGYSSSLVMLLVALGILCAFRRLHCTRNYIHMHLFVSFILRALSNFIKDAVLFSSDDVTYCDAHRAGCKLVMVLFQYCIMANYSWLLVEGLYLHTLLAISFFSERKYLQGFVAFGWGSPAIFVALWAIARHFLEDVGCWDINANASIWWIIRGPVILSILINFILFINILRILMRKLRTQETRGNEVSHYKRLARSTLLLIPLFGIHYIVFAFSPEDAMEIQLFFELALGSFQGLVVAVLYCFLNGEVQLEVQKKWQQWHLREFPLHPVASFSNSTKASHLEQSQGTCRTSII

As for `CC(C)C[C@H](NC(=O)CNC(=O)[C@H](CCC(N)=O)NC(=O)[C@H](CC(C)C)NC(=O)[C@H](CC(C)C)NC(=O)[C@H](CCCNC(=N)N)NC(=O)[C@H](CCC(N)=O)NC(=O)[C@H](CC(C)C)NC(=O)[C@H](CCCNC(=N)N)NC(=O)[C@H](C)NC(=O)CNC(=O)[C@H](CCC(=O)O)NC(=O)[C@H](CCCNC(=N)N)NC(=O)[C@H](CC(C)C)NC(=O)[C@H](CCCNC(=N)N)NC(=O)[C@H](CO)NC(=O)[C@H](CC(C)C)NC(=O)[C@H](CCC(=O)O)NC(=O)[C@H](CO)NC(=O)[C@@H](NC(=O)[C@H](C)NC(=O)[C@@H](NC(=O)CNC(=O)[C@H](CC(=O)O)NC(=O)[C@H](CO)NC(=O)[C@@H](N)Cc1c[nH]cn1)[C@@H](C)O)[C@@H](C)O)C(=O)N[C@H](C(=O)O)C(C)C` [Peptide 7], the EC50 (U2OS-SCTR/β-arr2-GFP cells, ligand 20 min at 37 °C, vesicle area/cell by automated microscopy, read-out: EC50, β-arr2-GFP translocation assay) was 155 ± 30.8 nM. Further, the Emax (U2OS-SCTR/β-arr2-GFP cells, normalized to wild type secretin = 100% curve maximum, read-out: intrinsic activity (efficacy), β-arr2-GFP translocation assay) amounted to 61.8 ± 4.9%.
On to `CC(C)C[C@H](NC(=O)CNC(=O)[C@H](CCC(N)=O)NC(=O)[C@H](CC(C)C)NC(=O)[C@H](CC(C)C)NC(=O)[C@H](CCCNC(=N)N)NC(=O)[C@H](CCC(N)=O)NC(=O)[C@H](CC(C)C)NC(=O)[C@H](CCCNC(=N)N)NC(=O)[C@H](C)NC(=O)CNC(=O)[C@H](CCC(=O)O)NC(=O)[C@H](CCCCN)NC(=O)[C@H](CC(C)C)NC(=O)[C@H](CCCNC(=N)N)NC(=O)[C@H](CO)NC(=O)[C@H](CC(C)C)NC(=O)[C@H](CCC(=O)O)NC(=O)[C@H](CO)NC(=O)[C@@H](NC(=O)[C@H](Cc1ccccc1)NC(=O)[C@@H](NC(=O)CNC(=O)[C@H](CC(=O)O)NC(=O)[C@H](CO)NC(=O)[C@@H](N)Cc1c[nH]cn1)[C@@H](C)O)[C@@H](C)O)C(=O)N[C@H](C(=O)O)C(C)C` [Peptide 68], for which, under setting [1], the β-arrestin2-GFP agonism efficacy was 114,30 % Sec. The EC50 under setting [2] was 9.53 nM.
For `CC(C)C[C@H](NC(=O)CNC(=O)[C@H](CCC(N)=O)NC(=O)[C@H](CC(C)C)NC(=O)[C@H](CC(C)C)NC(=O)[C@H](CCCNC(=N)N)NC(=O)[C@H](CCC(N)=O)NC(=O)[C@H](CC(C)C)NC(=O)[C@H](CCCNC(=N)N)NC(=O)[C@H](C)NC(=O)CNC(=O)[C@H](CC(=O)O)NC(=O)[C@H](CCCNC(=N)N)NC(=O)[C@H](CC(C)C)NC(=O)[C@H](CCCNC(=N)N)NC(=O)[C@H](CO)NC(=O)[C@H](CC(C)C)NC(=O)[C@H](CCC(=O)O)NC(=O)[C@H](CO)NC(=O)[C@@H](NC(=O)[C@H](Cc1ccccc1)NC(=O)[C@@H](NC(=O)CNC(=O)[C@H](CC(=O)O)NC(=O)[C@H](CO)NC(=O)[C@@H](N)Cc1c[nH]cn1)[C@@H](C)O)[C@@H](C)O)C(=O)N[C@H](C(=O)O)C(C)C` [Peptide 69], in that order: 111,23 % Sec and 4.52 nM.
`CC(C)C[C@H](NC(=O)CNC(=O)[C@H](CCC(N)=O)NC(=O)[C@H](CC(C)C)NC(=O)[C@H](CC(C)C)NC(=O)[C@H](CCCNC(=N)N)NC(=O)[C@H](CCC(N)=O)NC(=O)[C@H](CC(C)C)NC(=O)[C@H](CCCNC(=N)N)NC(=O)[C@H](CCC(=O)O)NC(=O)CNC(=O)[C@H](CCC(=O)O)NC(=O)[C@H](CCCNC(=N)N)NC(=O)[C@H](CC(C)C)NC(=O)[C@H](CCCNC(=N)N)NC(=O)[C@H](CO)NC(=O)[C@H](CC(C)C)NC(=O)[C@H](CCC(=O)O)NC(=O)[C@H](CO)NC(=O)[C@@H](NC(=O)[C@H](Cc1ccccc1)NC(=O)[C@@H](NC(=O)CNC(=O)[C@H](CC(=O)O)NC(=O)[C@H](CO)NC(=O)[C@@H](N)Cc1c[nH]cn1)[C@@H](C)O)[C@@H](C)O)C(=O)N[C@H](C(=O)O)C(C)C` [Peptide 70]: the β-arrestin2-GFP agonism efficacy under setting [1] is listed as 104,77 % Sec. Besides, under setting [2], the EC50 came out at 2.26 nM.
On to `CC(C)C[C@H](NC(=O)CNC(=O)[C@H](CCC(N)=O)NC(=O)[C@H](CC(C)C)NC(=O)[C@H](CC(C)C)NC(=O)[C@H](CCCNC(=N)N)NC(=O)[C@H](CCC(=O)O)NC(=O)[C@H](CC(C)C)NC(=O)[C@H](CCCNC(=N)N)NC(=O)[C@H](C)NC(=O)CNC(=O)[C@H](CCC(=O)O)NC(=O)[C@H](CCCNC(=N)N)NC(=O)[C@H](CC(C)C)NC(=O)[C@H](CCCNC(=N)N)NC(=O)[C@H](CO)NC(=O)[C@H](CC(C)C)NC(=O)[C@H](CCC(=O)O)NC(=O)[C@H](CO)NC(=O)[C@@H](NC(=O)[C@H](Cc1ccccc1)NC(=O)[C@@H](NC(=O)CNC(=O)[C@H](CC(=O)O)NC(=O)[C@H](CO)NC(=O)[C@@H](N)Cc1c[nH]cn1)[C@@H](C)O)[C@@H](C)O)C(=O)N[C@H](C(=O)O)C(C)C` [Peptide 71], for which the β-arrestin2-GFP agonism efficacy under setting [1] is given as 100,73 % Sec. Moreover, under setting [2], the EC50 is 2.28 nM.
For `CC(C)C[C@H](NC(=O)CNC(=O)[C@H](CCC(N)=O)NC(=O)[C@H](CC(C)C)NC(=O)[C@H](CC(C)C)NC(=O)[C@H](CCCNC(=N)N)NC(=O)[C@H](CCC(N)=O)NC(=O)[C@H](CC(C)C)NC(=O)[C@H](CCCNC(=N)N)NC(=O)[C@H](C)NC(=O)[C@H](CC(C)C)NC(=O)[C@H](CCC(=O)O)NC(=O)[C@H](CCCNC(=N)N)NC(=O)[C@H](CC(C)C)NC(=O)[C@H](CCCNC(=N)N)NC(=O)[C@H](CO)NC(=O)[C@H](CC(C)C)NC(=O)[C@H](CCC(=O)O)NC(=O)[C@H](CO)NC(=O)[C@@H](NC(=O)[C@H](Cc1ccccc1)NC(=O)[C@@H](NC(=O)CNC(=O)[C@H](CC(=O)O)NC(=O)[C@H](CO)NC(=O)[C@@H](N)Cc1c[nH]cn1)[C@@H](C)O)[C@@H](C)O)C(=O)N[C@H](C(=O)O)C(C)C` [Peptide 72], in that order: 104,60 % Sec and 3.32 nM.
In the case of `CC(C)C[C@H](NC(=O)CNC(=O)[C@H](CCC(N)=O)NC(=O)[C@H](CC(C)C)NC(=O)[C@H](CC(C)C)NC(=O)[C@H](CCCNC(=N)N)NC(=O)[C@H](CCC(N)=O)NC(=O)[C@H](CC(C)C)NC(=O)[C@H](CCCNC(=N)N)NC(=O)[C@H](C)NC(=O)CNC(=O)[C@H](CCC(=O)O)NC(=O)[C@H](CCCNC(=N)N)NC(=O)[C@H](CC(C)C)NC(=O)[C@H](CCCNC(=N)N)NC(=O)[C@H](CO)NC(=O)[C@H](CC(C)C)NC(=O)[C@H](CCC(=O)O)NC(=O)[C@H](CO)NC(=O)[C@@H](NC(=O)[C@H](Cc1ccccc1)NC(=O)[C@@H](NC(=O)CNC(=O)[C@H](CC(=O)O)NC(=O)[C@H](CO)NC(=O)[C@@H]1CCCN1)[C@@H](C)O)[C@@H](C)O)C(=O)N[C@H](C(=O)O)C(C)C` [Peptide 73], the β-arrestin2-GFP agonism efficacy under setting [1] is listed as 96,57 % Sec. The EC50 under setting [2] stood at 39.1 nM.
For the molecule `CC(C)C[C@H](NC(=O)CNC(=O)[C@H](CCC(N)=O)NC(=O)[C@H](CC(C)C)NC(=O)[C@H](CC(C)C)NC(=O)[C@H](CCCNC(=N)N)NC(=O)[C@H](CCC(N)=O)NC(=O)[C@H](CC(C)C)NC(=O)[C@H](CCCNC(=N)N)NC(=O)[C@H](C)NC(=O)CNC(=O)[C@H](CCC(=O)O)NC(=O)[C@H](CCCNC(=N)N)NC(=O)[C@H](CC(C)C)NC(=O)[C@H](CCCNC(=N)N)NC(=O)[C@H](CO)NC(=O)[C@H](CC(C)C)NC(=O)[C@H](CCC(=O)O)NC(=O)[C@H](CO)NC(=O)[C@@H](NC(=O)[C@H](Cc1ccccc1)NC(=O)[C@@H](NC(=O)CNC(=O)[C@H](CC(=O)O)NC(=O)[C@@H]1CCCN1C(=O)[C@@H](N)Cc1c[nH]cn1)[C@@H](C)O)[C@@H](C)O)C(=O)N[C@H](C(=O)O)C(C)C` [Peptide 74], the β-arrestin2-GFP agonism efficacy under setting [1] is 106,23 % Sec. Moreover, the EC50 under setting [2] was found to be 3.37 nM.
Take `CC(C)C[C@H](NC(=O)[C@H](CCCNC(=N)N)NC(=O)[C@H](C)NC(=O)CNC(=O)[C@H](CCC(=O)O)NC(=O)[C@H](CCCNC(=N)N)NC(=O)[C@H](CC(C)C)NC(=O)[C@H](CCCNC(=N)N)NC(=O)[C@H](CO)NC(=O)[C@H](CC(C)C)NC(=O)[C@H](CCC(=O)O)NC(=O)[C@H](CO)NC(=O)[C@@H](NC(=O)[C@H](Cc1ccccc1)NC(=O)[C@@H](NC(=O)CNC(=O)[C@H](CC(=O)O)NC(=O)[C@H](CO)NC(=O)[C@@H](N)Cc1c[nH]cn1)[C@@H](C)O)[C@@H](C)O)C(=O)N[C@@H](CCC(N)=O)C(=O)N[C@@H](CCCNC(=N)N)C(=O)N[C@@H](CC(C)C)C(=O)N[C@@H](CC(C)C)C(=O)N[C@@H](CCC(N)=O)C(=O)N1CCC[C@H]1C(=O)N[C@@H](CC(C)C)C(=O)N[C@H](C(=O)O)C(C)C` [Peptide 83]: the β-arrestin2-GFP agonism efficacy under setting [1] is 103,17 % Sec. Besides, under setting [2], the EC50 stood at 22.1 nM.

For the origin of these results see PMC8944975, “Secretin Receptor as a Target in Gastrointestinal Cancer: Expression Analysis and Ligand Development” (Biomedicines, 2022).
